How the values were obtained:
trachealis muscle = experiment: Inhibition of calcium dependent smooth muscle contraction (KCl-challenged trachea); type: cell-based, dog; conditions: Canis lupus familiaris, Table II; for inhibition at 0.1 µM: concentration 0.1 μM; for inhibition at 0.1 µM / inhibition at 0.2 µM / inhibition at 2 µM: read-out: Inhibition Trachea Muscle Contraction % Inhibition; for inhibition at 0.2 µM: concentration 0.2 μM; for inhibition at 2 µM: concentration 2.0 μM; for inhibition at 1 µM: concentration 1.0 μM
Method: The test for inhibition of calcium dependent smooth muscle contraction is determined according to the following procedure:
Trachea from dogs sacrificed by excess KCl injection are stored overnight at 4° C. in oxygenated Krebs-Henseleit buffer. Tracheal rings, one cartilage segment wide (5-10 mm), are cut starting from the bronchial end. After cutting the cartilage, the trachealis muscle tissue is suspended in oxygenated Krebs-Henseleit buffer at 37° C. in a 25 ml tissue bath. After a 60 minutes equilibration period, the tissues are challenged with 10 μM carbachol. After 5 minutes the tissues are rinsed and allowed to rest 50 minutes. The tissues are then challenged with 50 mM KCl and, after 30 minutes, the contractions are quantitated. The tissues are then rinsed and reequilibrated for 50 minutes. Test compounds are then added for 10 minutes, and the tissue is rechallenged with 50 mMKcl. After 30 minutes, the contraction is recorded and used to determine the % inhibition of control.
The percent inhibition of smooth muscle contraction is calculated from response data before and after drug treatment. [formula] A rating is assigned to the compound depending upon the percent inhibition obtained.

calcium channels = target: T1, calcium channels (Oryctolagus cuniculus, UniProt P15381); experiment: Inhibition of nitrendipine binding (3H-nitrendipine displacement, rabbit heart membranes); parameters: species or system rabbit (New Zealand white); conditions: Table II, 90 min, 4° C.
T1 construct: from tissue; host or cells: heart of female New Zealand white rabbits, membrane fraction (42,000×g pellet)
T1 sequence (P15381 whole entry, other chains not shown): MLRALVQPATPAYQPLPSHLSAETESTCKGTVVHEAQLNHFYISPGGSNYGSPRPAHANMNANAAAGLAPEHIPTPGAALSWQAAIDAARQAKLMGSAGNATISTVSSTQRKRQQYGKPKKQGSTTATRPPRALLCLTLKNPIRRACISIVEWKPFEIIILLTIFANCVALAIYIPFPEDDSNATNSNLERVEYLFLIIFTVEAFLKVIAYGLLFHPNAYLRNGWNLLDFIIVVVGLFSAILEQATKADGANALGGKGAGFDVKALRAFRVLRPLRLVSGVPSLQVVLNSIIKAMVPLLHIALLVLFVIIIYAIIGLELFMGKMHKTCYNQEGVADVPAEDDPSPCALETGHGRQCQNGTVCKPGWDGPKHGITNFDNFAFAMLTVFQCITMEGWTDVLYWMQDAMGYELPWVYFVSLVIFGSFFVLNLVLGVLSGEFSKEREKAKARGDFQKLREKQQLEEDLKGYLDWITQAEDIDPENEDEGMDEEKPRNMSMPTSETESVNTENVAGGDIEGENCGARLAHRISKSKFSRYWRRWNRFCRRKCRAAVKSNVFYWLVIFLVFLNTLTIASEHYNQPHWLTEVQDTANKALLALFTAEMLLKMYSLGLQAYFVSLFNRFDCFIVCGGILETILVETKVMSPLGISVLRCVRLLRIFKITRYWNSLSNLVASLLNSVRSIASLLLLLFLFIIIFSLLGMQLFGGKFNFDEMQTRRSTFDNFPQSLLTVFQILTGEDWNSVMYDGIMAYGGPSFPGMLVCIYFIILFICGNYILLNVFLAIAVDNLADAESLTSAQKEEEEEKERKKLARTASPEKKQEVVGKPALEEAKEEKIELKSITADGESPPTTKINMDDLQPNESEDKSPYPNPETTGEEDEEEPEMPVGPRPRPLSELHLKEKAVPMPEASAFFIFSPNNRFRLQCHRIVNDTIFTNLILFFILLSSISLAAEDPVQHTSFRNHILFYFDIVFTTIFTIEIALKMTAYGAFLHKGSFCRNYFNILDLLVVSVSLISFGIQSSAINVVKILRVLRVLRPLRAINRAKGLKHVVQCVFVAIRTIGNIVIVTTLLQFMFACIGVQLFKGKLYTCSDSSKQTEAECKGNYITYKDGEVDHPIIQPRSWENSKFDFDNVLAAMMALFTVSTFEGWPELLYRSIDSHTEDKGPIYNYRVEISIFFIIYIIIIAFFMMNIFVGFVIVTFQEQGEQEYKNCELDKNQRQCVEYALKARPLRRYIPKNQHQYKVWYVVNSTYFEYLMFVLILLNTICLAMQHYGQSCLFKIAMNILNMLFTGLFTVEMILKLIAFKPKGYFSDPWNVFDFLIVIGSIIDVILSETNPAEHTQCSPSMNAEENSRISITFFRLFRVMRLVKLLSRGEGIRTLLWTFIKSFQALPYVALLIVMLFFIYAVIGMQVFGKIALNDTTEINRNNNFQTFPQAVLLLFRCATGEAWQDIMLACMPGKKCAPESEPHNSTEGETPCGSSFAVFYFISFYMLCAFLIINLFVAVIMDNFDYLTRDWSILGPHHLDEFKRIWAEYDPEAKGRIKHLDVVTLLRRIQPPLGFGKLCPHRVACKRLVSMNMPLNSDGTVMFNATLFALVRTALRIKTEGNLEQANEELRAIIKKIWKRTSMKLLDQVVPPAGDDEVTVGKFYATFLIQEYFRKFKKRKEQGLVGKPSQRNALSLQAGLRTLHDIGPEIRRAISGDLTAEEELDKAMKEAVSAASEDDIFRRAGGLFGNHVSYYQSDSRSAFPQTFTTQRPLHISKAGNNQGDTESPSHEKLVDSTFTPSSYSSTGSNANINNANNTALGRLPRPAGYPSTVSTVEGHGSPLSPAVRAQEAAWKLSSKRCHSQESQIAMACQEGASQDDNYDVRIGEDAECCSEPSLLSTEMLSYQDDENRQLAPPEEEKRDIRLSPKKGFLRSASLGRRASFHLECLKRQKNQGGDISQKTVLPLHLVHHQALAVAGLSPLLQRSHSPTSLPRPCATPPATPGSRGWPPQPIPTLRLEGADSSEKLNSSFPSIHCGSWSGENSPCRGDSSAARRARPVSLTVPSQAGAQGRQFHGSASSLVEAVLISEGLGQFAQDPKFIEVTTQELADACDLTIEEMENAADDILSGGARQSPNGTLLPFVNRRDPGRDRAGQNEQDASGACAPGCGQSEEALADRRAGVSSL
T1 sequence (P13806 27-960 partner limits assumed, other chains not shown): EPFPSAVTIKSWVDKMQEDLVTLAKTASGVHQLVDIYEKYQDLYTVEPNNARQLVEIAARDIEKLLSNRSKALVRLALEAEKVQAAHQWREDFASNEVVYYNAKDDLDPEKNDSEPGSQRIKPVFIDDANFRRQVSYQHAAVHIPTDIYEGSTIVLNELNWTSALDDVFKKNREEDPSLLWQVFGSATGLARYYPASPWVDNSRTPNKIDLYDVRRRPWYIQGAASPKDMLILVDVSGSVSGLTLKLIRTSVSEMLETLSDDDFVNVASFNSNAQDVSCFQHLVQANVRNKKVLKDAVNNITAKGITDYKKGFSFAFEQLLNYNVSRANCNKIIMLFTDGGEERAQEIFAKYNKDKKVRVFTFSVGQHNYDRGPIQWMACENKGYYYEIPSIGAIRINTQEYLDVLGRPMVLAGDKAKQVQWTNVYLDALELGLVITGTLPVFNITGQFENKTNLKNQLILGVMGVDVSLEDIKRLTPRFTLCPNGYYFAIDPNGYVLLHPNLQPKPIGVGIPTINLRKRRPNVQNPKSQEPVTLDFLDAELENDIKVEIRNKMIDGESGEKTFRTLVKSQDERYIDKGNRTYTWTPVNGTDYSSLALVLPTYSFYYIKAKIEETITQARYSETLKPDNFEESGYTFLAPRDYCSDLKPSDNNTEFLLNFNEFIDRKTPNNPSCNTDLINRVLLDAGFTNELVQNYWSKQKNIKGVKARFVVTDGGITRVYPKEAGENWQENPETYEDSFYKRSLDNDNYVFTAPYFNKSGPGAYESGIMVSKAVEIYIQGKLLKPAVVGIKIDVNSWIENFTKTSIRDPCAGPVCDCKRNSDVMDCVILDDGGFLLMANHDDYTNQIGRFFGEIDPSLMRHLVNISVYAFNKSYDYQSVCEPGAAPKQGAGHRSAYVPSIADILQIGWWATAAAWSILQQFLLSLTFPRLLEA
T1 sequence (P13806 961-1106 partner limits assumed, other chains not shown): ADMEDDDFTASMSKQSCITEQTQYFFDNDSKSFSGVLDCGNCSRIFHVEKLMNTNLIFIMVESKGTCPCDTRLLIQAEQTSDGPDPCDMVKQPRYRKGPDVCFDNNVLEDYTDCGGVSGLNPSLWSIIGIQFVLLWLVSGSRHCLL
Method: (1) Inhibition of nitrendipine binding to calcium channels.
The assay for inhibition of nitrendipine binding follows the following procedure:
Female, New Zealand white rabbits (1-2 kg) are sacrificed by cervical dislocation, and the heart is immediately removed, cleaned, and chopped into small pieces. The tissue is homogenized in 5× volume of 0.05M Hepes buffer, pH 7.4. The homogenate is centrifuged at 4000×g for 10 minutes; the supernatant is recentrifuged at 42,000×g for 90 minutes. The resulting membrane pellet is resuspended (0.7 ml/g weight) in 0.05M Hepes, pH 7.4 and stored at -70° C. until used. Each tube of the binding assay contains ^3 H- nitrendipine (0.05-0.50 nM), buffer, membranes (0.10 ml), and test compound in a total volume of 1.0 ml. After 90 minutes at 4° C., the bound nitrendipine is separated from the unbound by filtration on Whatman GF/C fibers. After rinsing, the filters are dried and counted in a liquid scintillation counter.
Non-specific binding of ^3 H-nitrendipine (that amount bound in the presence of excess unlabelled nitrendipine) is subtracted from the total bound to obtain specifically bound radiolabeled nitrendipine. The amount of specifically bound nitrendipine in the presence of a test compound is compared to that amount bound in the absence of a compound. A percent displacement (or inhibition) can then be obtained.

Aorta Muscle = experiment: Inhibition of aorta muscle contraction; type: cell-based; conditions: Table II; for inhibition at 0.1 µM: concentration 0.1 μM

Row | SMILES | inhibition at 0.1 µM (trachealis muscle) [%] | IC50 (calcium channels) [µM] | inhibition at 0.1 µM (Aorta Muscle) [%] | inhibition at 0.2 µM (trachealis muscle) [%] | inhibition at 2 µM (trachealis muscle) [%] | inhibition at 1 µM (trachealis muscle) [%] | inhibition at 3 µM (Aorta Muscle; concentration 3.0 μM) [%] | inhibition at 0.01 µM (Aorta Muscle; concentration 0.01 μM) [%]
1 | CC1=C(C(=O)OCCN(C)Cc2ccccc2)C(c2c(Cl)cccc2Cl)C2=C(CCCCS2(=O)=O)N1 (stereo not drawn) [4 2,6-Cl2C6 H3] | 55 | 0.086 | 50 |  |  |  |  | 
2 | CC1=C(C(=O)OCCN(C)c2ccccc2)C(c2ccccc2C(F)(F)F)C2=C(CCCCS2(=O)=O)N1 (stereo not drawn) [4 2-CF3C6 H4 CH2 CH2 NCH3 C6 H5] | 59 | 0.046 | 57 |  |  |  |  | 
3 | CC1=C(C(=O)OCCN(C)Cc2ccccc2)C(c2ccccc2C(F)(F)F)C2=C(CCCCS2(=O)=O)N1 (stereo not drawn) [4 2-CF3C6 H4, N-Benzyl-N-methylaminoethyl 2,4,5,6,9-hexahydro-7-methyl-9-(2-trifluoromethylphenyl)-1,1-dioxothiacyclohepteno[3,2-b]pyridine-8-carboxylate] | 64 | 0.16 | 85 |  |  |  |  | 
4 | CC1=C(C(=O)OCCN(C)Cc2ccccc2)C(c2cccc(C(F)(F)F)c2Cl)C2=C(CCCCS2(=O)=O)N1 (stereo not drawn) [4 2-Cl,3-CF3C6 H3] |  | 0.39 | 66 | 50 |  |  |  | 
5 | CC1=C(C(=O)OCCN(C)Cc2ccccc2)C(c2cc([N+](=O)[O-])ccc2Cl)C2=C(CCCCS2(=O)=O)N1 (stereo not drawn) [4 2-Cl,5-NO2C6 H3] | 38 | 0.26 | 63 |  |  |  |  | 
6 | CC1=C(C(=O)OCCN(C)Cc2ccccc2)C(c2c(F)cccc2Cl)C2=C(CCCCS2(=O)=O)N1 (stereo not drawn) [4 2-Cl,6-FC6 H3, N-Benzyl-N-methylaminoethyl 9-(2-chloro-6-fluorophenyl)-2,4,5,6,9-hexahydro-7-methyl-1,1-dioxothiacyclohepteno[3,2-b]pyridine-8-carboxylate] | 50 | 0.029 | 66 |  |  |  |  | 
7 | CC1=C(C(=O)OCCN(C)Cc2ccccc2)C(c2ccccc2Cl)C2=C(CCCCS2(=O)=O)N1 (stereo not drawn) [4 2-ClC6 H4, N-Benzyl-N-methylaminoethyl 9-(2-chlorophenyl)-2,4,5,6,9-hexahydro-7-methyl-1,1-dioxothiacyclohepteno[3,2-b]pyridine-8-carboxylate] | 57 | 0.22 | 54 |  |  |  |  | 
8 | CC1=C(C(=O)OCCN(C)Cc2ccccc2)C(c2ccccc2F)C2=C(CCCCS2(=O)=O)N1 (stereo not drawn) [4 2-FC6 H4] |  | 0.44 | 32 |  | 84 |  |  | 
9 | CC1=C(C(=O)OCCCN(C)Cc2ccccc2)C(c2ccccc2[N+](=O)[O-])C2=C(CCCCS2(=O)=O)N1 (stereo not drawn) [4 2-NO2C6 H4 CH2 CH2 CH2 NCH3 CH2 C6 H5] |  | 1 | 7.7 |  |  | 41 |  | 
10 | CC1=C(C(=O)OCCN(C)c2ccccc2)C(c2ccccc2[N+](=O)[O-])C2=C(CCCCS2(=O)=O)N1 (stereo not drawn) [4 2-NO2C6 H4 CH2 CH2 NCH3 C6 H5] | 57 | 0.086 | 43 |  |  |  |  | 
11 | CC1=C(C(=O)OCCN(C)Cc2ccccc2)C(c2ccccc2[N+](=O)[O-])C2=C(CCCCS2(=O)=O)N1 (stereo not drawn) [4 2-NO2C6 H4] | 49 | 0.44 | 44 |  |  |  |  | 
12 | CC1=C(C(=O)OCCN(C)Cc2ccccc2)C(c2cccc(C(F)(F)F)c2)C2=C(CCCCS2(=O)=O)N1 (stereo not drawn) [4 3-CF3C6 H4] |  | 2.8 | 44 | 37 |  |  |  | 
13 | CC1=C(C(=O)OCCCN(C)Cc2ccccc2)C(c2cccc([N+](=O)[O-])c2)C2=C(CCCCS2(=O)=O)N1 (stereo not drawn) [4 3-NO2 C6 H4 CH2 CH2 CH2 NCH3 CH2 C6 H5] |  | 0.29 | 25 |  | 50 |  |  | 
14 | CC1=C(C(=O)OCCN(C)c2ccccc2)C(c2cccc([N+](=O)[O-])c2)C2=C(CCCCS2(=O)=O)N1 (stereo not drawn) [4 3-NO2C6 H4 CH2 CH2 NCH3 C6 H5] |  | 0.045 | 53 |  |  | 65 |  | 
15 | CC1=C(C(=O)OCCNc2ccccc2)C(c2cccc([N+](=O)[O-])c2)C2=C(CCCCS2(=O)=O)N1 (stereo not drawn) [4 3-NO2C6 H4 CH2 CH2 NHC6 H5] |  | 0.016 | 48 |  |  | 72 |  | 
16 | CC1=C(C(=O)OCCO)C(c2cccc([N+](=O)[O-])c2)C2=C(CCCCS2(=O)=O)N1 (stereo not drawn) [4 3-NO2C6 H4 CH2 CH2 OH] |  | 2.4 |  |  | 23 |  | 41 | 
17 | CC1=C(C(=O)OC2CCN(Cc3ccccc3)CC2)C(c2cccc([N+](=O)[O-])c2)C2=C(CCCCS2(=O)=O)N1 (stereo not drawn) [4 3-NO2C6 H4 drawing 7] |  | 0.86 | 12 |  | 17 |  |  | 
18 | CC1=C(C(=O)OCCN2CCc3ccccc32)C(c2cccc([N+](=O)[O-])c2)C2=C(CCCCS2(=O)=O)N1 (stereo not drawn) [4 3-NO2C6 H4 drawing 9] |  | 0.1 | 80 |  |  | 56 |  | 
19 | CC1=C(C(=O)OCCN2CCc3ccccc3C2)C(c2cccc([N+](=O)[O-])c2)C2=C(CCCCS2(=O)=O)N1 (stereo not drawn) [4 3-NO2C6 H4 drawing 11] |  | 0.2 | 53 | 45 |  |  |  | 
20 | CC1=C(C(=O)OCCN(C)Cc2ccccc2)C(c2cccc(Cl)c2Cl)C2=C(CCCCCS2(=O)=O)N1 (stereo not drawn) [5 2,3-Cl2C6 H3] | 26 | 0.075 | 58 |  |  |  |  | 
21 | CC1=C(C(=O)OCCN(C)Cc2ccccc2)C(c2cccc(C(F)(F)F)c2Cl)C2=C(CCCCCS2(=O)=O)N1 (stereo not drawn) [5 2-Cl,3-CF3C6 H3, N-Benzyl-N-methylaminoethyl 10-(2-chloro-3-trifluoromethylphenyl)-3,4,5,6,7,10-hexahydro-8-methyl-1,1-dioxothiacycloocteno[3,2-b]pyridine-9-carboxylate] | 57 | 0.2 | 78 |  |  |  |  | 
22 | CC1=C(C(=O)OCCN(C)Cc2ccccc2)C(c2ccccc2OC(F)F)C2=C(CCCCCS2(=O)=O)N1 (stereo not drawn) [5 2-OCHF2C6 H4, N-Benzyl-N-methylaminoethyl 10-(2-difluoromethoxyphenyl)-3,4,5,6,7,10-hexahydro-8-methyl-1,1-dioxothiacycloocteno[3,2-b]pyridine-9-carboxylate] | 76 | 0.095 |  |  |  |  |  | 80
23 | CC1=C(C(=O)OCCc2ccccn2)C(c2cccc([N+](=O)[O-])c2)C2=C(CCCCCS2(=O)=O)N1 (stereo not drawn) [5 3-NO2C6 H4 drawing 10] | 53 | 0.065 | 48 |  |  |  |  | 
24 | CC1=C(C(=O)OCCN(C)Cc2ccccc2)C(c2cccc([N+](=O)[O-])c2)C2=C(CCCCCS2(=O)=O)N1 (stereo not drawn) [5 3-NO2C6 H4, N-Benzyl-N-methylaminoethyl 3,4,5,6,7,10-hexahydro-8-methyl-10-(3-nitrophenyl)-1,1-dioxo-2H-thiacycloocteno[3,2-b]pyridine-9-carboxylate] | 43 | 0.045 | 67 |  |  |  |  | 
25 | CC1=C(C(=O)OCCN(C)c2ccccc2)C(c2c(F)c(F)c(F)c(F)c2F)C2=C(CCCCCS2(=O)=O)N1 (stereo not drawn) [5 C6 F5 CH2 CH2 NCH3 C6 H5, N-Methyl-N-phenylaminoethyl 10-(2,3,4,5,6-pentafluorophenyl)-3,4,5,6,7,10-hexahydro-8-methyl-1,1-dioxothiacycloocteno[3,2-b]pyridine-9-carboxylate] | 47 | 0.018 | 63 |  |  |  |  | 

— patent publication US4777167A, “Pharmaceutically useful substituted thiacycloalkeno [3,2-b]pyridines, compositions and method of use” (Ortho Pharmaceutical Corporation, priority 1987, dated 1988)
